Patent US20250325552A1, “SUBSTITUTED THIADIAZOLYL DERIVATIVES AS DNA POLYMERASE THETA INHIBITORS” (IDEAYA Biosciences, Inc., priority 2020, published 2025)

Biological target: T1, Polθ theta (1-899) (hPolQ) (Homo sapiens (Human), UniProt O75417)
Experiment: Biological Assay 1: Polθ ATPase activity, NADH oxidation-coupled enzymatic assay (10 nM enzyme, 30 min)
Format: biochemical
Details: Polθ (1-899) 10 nM, 100 μM ATP, 300 nM dT50 ssDNA; Examples 1 to 268; read-out: ATPase NADH coupling:Standard Screening:hPolQ IC50
Method in brief: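 ATP turnover was coupled to NADH oxidation and followed at 340 nm every minute for 30 min. Enzyme (residues 1-899, 10 nM) sat with compound for 15 min at room temperature before an equal-volume addition of 100 μM ATP plus 300 nM dT50 ssDNA. Progress-curve slopes from 10-point dilutions were fitted by a four-parameter model.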

T1 sequence (O75417 1-899): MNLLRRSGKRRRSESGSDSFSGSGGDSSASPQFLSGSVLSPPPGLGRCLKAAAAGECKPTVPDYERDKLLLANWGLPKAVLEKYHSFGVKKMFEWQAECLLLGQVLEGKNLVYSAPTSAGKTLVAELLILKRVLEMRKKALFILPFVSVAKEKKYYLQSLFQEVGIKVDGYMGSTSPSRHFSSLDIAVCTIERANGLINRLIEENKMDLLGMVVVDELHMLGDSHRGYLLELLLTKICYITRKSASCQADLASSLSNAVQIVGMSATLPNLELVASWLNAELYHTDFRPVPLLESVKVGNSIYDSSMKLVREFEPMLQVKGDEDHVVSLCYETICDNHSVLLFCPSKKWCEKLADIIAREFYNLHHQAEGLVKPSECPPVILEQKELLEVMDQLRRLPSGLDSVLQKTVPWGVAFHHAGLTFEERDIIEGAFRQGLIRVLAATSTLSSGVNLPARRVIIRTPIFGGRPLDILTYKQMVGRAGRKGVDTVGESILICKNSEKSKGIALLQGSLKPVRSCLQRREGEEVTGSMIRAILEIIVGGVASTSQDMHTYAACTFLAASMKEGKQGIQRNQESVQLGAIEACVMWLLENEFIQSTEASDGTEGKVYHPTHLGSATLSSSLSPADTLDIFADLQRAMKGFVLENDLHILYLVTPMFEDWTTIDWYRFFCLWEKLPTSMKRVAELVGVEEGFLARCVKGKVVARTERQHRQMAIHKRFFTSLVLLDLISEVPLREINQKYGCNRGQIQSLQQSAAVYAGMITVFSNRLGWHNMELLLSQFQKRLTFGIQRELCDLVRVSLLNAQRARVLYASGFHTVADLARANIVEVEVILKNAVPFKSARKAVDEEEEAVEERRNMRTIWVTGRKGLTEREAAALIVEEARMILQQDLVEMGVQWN

Row | Compound | IC50 [µM]
1 | COc1cnc(Br)cc1-c1cc(C)ncc1C(=O)Nc1nnc(OC[C@H]2COCCO2)s1 [Example 236, (R)—N-(5-((1,4-dioxan-2-yl)methoxy)-1,3,4-thiadiazol-2-yl)-2′-bromo-5′-methoxy-6-methyl-(4,4′-bipyridine)-3-carboxamide] | ≤ 0.2
2 | COc1cnc(Cl)c(F)c1-c1cc(C)ncc1C(=O)Nc1nnc(OC[C@@H]2COCCO2)s1 [Example 239, N-(5-(((S)-1,4-dioxan-2-yl)methoxy)-1,3,4-thiadiazol-2-yl)-2′-chloro-3′-fluoro-5′-methoxy-6-methyl-(4,4′-bipyridine)-3-carboxamide] | ≤ 0.2
3 | COc1cnc(Cl)c(F)c1-c1cc(C)ncc1C(=O)Nc1nnc(OC[C@H]2COCCO2)s1 [Example 240, N-(5-(((R)-1,4-dioxan-2-yl)methoxy)-1,3,4-thiadiazol-2-yl)-2′-chloro-3′-fluoro-5′-methoxy-6-methyl-(4,4′-bipyridine)-3-carboxamide] | ≤ 0.2
4 | COc1cnc(C)c(F)c1-c1cc(C)ncc1C(=O)Nc1nnc(OC[C@H]2COCCO2)s1 [Example 242, N-(5-(((R)-1,4-dioxan-2-yl)methoxy)-1,3,4-thiadiazol-2-yl)-3′-fluoro-5′-methoxy-2′,6-dimethyl-(4,4′-bipyridine)-3-carboxamide] | ≤ 0.2
5 | Cc1cc(-c2cc(Cl)ncc2OC(F)F)c(C(=O)Nc2nnc(OC[C@H]3CC[C@H](O)CC3)s2)cn1 [Example 243, 2′-chloro-5′-(difluoromethoxy)-N-(5-(((1r,4r)-4-hydroxycyclohexyl)methoxy)-1,3,4-thiadiazol-2-yl)-6-methyl-(4,4′-bipyridine)-3-carboxamide] | ≤ 0.2
6 | COc1cnc(Cl)cc1-c1cc(C)ncc1C(=O)Nc1nnc(OCC2COC(CO)CO2)s1 (stereo not drawn) [Example 246, 2′-chloro-N-(5-((5-(hydroxymethyl)-1,4-dioxan-2-yl)methoxy)-1,3,4-thiadiazol-2-yl)-5′-methoxy-6-methyl-(4,4′-bipyridine)-3-carboxamide] | ≤ 0.2
7 | COc1cnc(Br)cc1-c1cc(C)ncc1C(=O)Nc1nnc(OC[C@H]2CC[C@H](O)CC2)s1 [Example 247, 2′-bromo-N-(5-(((1r,4r)-4-hydroxycyclohexyl)methoxy)-1,3,4-thiadiazol-2-yl)-5′-methoxy-6-methyl-(4,4′-bipyridine)-3-carboxamide] | ≤ 0.2
8 | COc1cnc(Cl)c(F)c1-c1cc(C)ncc1C(=O)Nc1nnc(OC[C@H]2CC[C@H](O)CC2)s1 [Example 248, 2′-chloro-3′-fluoro-N-(5-(((1r,4r)-4-hydroxycyclohexyl)methoxy)-1,3,4-thiadiazol-2-yl)-5′-methoxy-6-methyl-(4,4′-bipyridine)-3-carboxamide] | ≤ 0.2
9 | COc1cnc(C)c(F)c1-c1cc(C)ncc1C(=O)Nc1nnc(OC[C@H]2CCOC2)s1 [Example 249, 3′-fluoro-5′-methoxy-2′,6-dimethyl-N-(5-(((S)-tetrahydrofuran-3-yl)methoxy)-1,3,4-thiadiazol-2-yl)-(4,4′-bipyridine)-3-carboxamide] | ≤ 0.2
10 | COc1cnc(C)c(F)c1-c1cc(C)ncc1C(=O)Nc1nnc(OC[C@@H]2CCOC2)s1 [Example 250, 3′-fluoro-5′-methoxy-2′,6-dimethyl-N-(5-(((R)-tetrahydrofuran-3-yl)methoxy)-1,3,4-thiadiazol-2-yl)-(4,4′-bipyridine)-3-carboxamide] | ≤ 0.2
11 | N-(5-(((S)-1,4-dioxan-2-yl)methoxy)-1,3,4-thiadiazol-2-yl)-3′-fluoro-5′-methoxy-2′,6-dimethyl-(4,4′-bipyridine)-3-carboxamide [Example 241] | ≤ 0.2

Second part, the compound after the results:

Row | IC50 [µM] | Compound
12 | ≤ 0.2 | COc1cnc(Cl)cc1-c1cc(C)ncc1C(=O)Nc1nnc(OCC2CCCC2O)s1 (stereo not drawn) [Example 261, 2′-chloro-N-(5-((2-hydroxycyclopentyl)methoxy)-1,3,4-thiadiazol-2-yl)-5′-methoxy-6-methyl-(4,4′-bipyridine)-3-carboxamide]
13 | ≤ 0.2 | COc1cnc(Cl)cc1-c1cc(C)ncc1C(=O)Nc1nnc(OCC2COC(C)C2)s1 (stereo not drawn) [Example 262, 2′-chloro-5′-methoxy-6-methyl-N-(5-((5-methyltetrahydrofuran-3-yl)methoxy)-1,3,4-thiadiazol-2-yl)-(4,4′-bipyridine)-3-carboxamide]
14 | 0.2 to 0.5 | COc1ccccc1-c1cnccc1C(=O)Nc1nnc(OCC2CCOCC2)s1 [compound 1, 3-(2-methoxyphenyl)-N-(5-((tetrahydro-2H-pyran-4-yl)methoxy)-1,3,4-thiadiazol-2-yl)isonicotinamide]
15 | 0.2 to 0.5 | COc1ccccc1-c1cnccc1C(=O)Nc1nnc(OCC2CCCCO2)s1 (stereo not drawn) [compound 2, 3-(2-methoxyphenyl)-N-(5-((tetrahydro-2H-pyran-2-yl)methoxy)-1,3,4-thiadiazol-2-yl)isonicotinamide]
16 | ≤ 0.2 | COc1ccccc1-c1cnccc1C(=O)Nc1nnc(OCC2CCCc3[nH]ncc32)s1 (stereo not drawn) [compound 3, 3-(2-methoxyphenyl)-N-(5-(4,5,6,7-tetrahydro-1H-indazol-4-ylmethoxy)-1,3,4-thiadiazol-2-yl)pyridine-4-carboxamide]
17 | ≤ 0.2 | COc1ccccc1-c1cc(C)ncc1C(=O)Nc1nnc(OCc2ccc(C3(C(=O)O)CC3)cn2)s1 [compound 4, 1-(6-(((5-(4-(2-methoxyphenyl)-6-methylnicotinamido)-1,3,4-thiadiazol-2-yl)oxy)methyl)pyridin-3-yl)cyclopropane-1-carboxylic acid]
18 | ≤ 0.2 | COc1ccccc1-c1cc(C)ncc1C(=O)Nc1nnc(OCc2ccc(CO)cn2)s1 [compound 5, N-(5-((5-(hydroxymethyl)pyridin-2-yl)methoxy)-1,3,4-thiadiazol-2-yl)-4-(2-methoxyphenyl)-6-methylnicotinamide]

Biological target: T1, Polθ theta (1-899) (hPolQ)
Experiment: Biological Assay 2: Polθ ATPase activity, NADH oxidation-coupled enzymatic assay (5 nM enzyme, 120 min)
Format: biochemical
Details: Polθ (1-899) 5 nM, 100 μM ATP, 300 nM dT50 ssDNA; Examples 269 to 271; read-out: ATPase NADH coupling:Standard Screening:hPolQ IC50
Procedure: The ability of the compounds (Example 269 to Example 271) of described herein to inhibit ATPase activity of Polθ theta (1-899) was determined using the assay described below.
Polθ Theta ATPase activity was determined by measuring the rate of ATP turn over in a NADH oxidation-coupled enzymatic assay. 11-point dilution series of compounds were used in a 384 well format for the inhibition assays. Polθ theta (1-899) (5 nM) in assay buffer (20 mM Tris HCl (pH 7.80), 80 mM KCl, 10 mM MgCl2, 1 mM DTT, 0.01% BSA, 0.01% Tween, 5% glycerol) was transferred to the test wells (20 μL), except the low control wells (20 μL of assay buffer was added to the low control wells). The plate was then incubated at room temperature for 15 min. An equal volume (20 μL) of 100 μM ATP, 300 nM dT50 (single-stranded DNA (ssDNA) containing 50 thymine bases), 300 μM NADH, 6 mM PEP, 10 U/mL lactate dehydrogenase and U/mL pyruvate kinase in assay buffer was added to all the test wells. The plate was then centrifuged at 1000 rpm for 1 min. The reaction was monitored for 120 min by measuring absorbance (λ=340 nm) in a PHERAstar FSX multimode plate reader every 3 minute. The high control (DMSO with enzyme) with low absorbance intensity represents no inhibition of ATPase reaction while the low control (DMSO with buffer) with high absorbance intensity represents full inhibition of ATPase activity. Slope of the reaction progress curves were used to calculate the rate of ATP hydrolysis. The rates were used to determine the percent inhibition using a four-parameter inhibition model to generate IC50, Hill slope and max inhibition.

Row | IC50 [µM] | Compound
19 | ≤ 0.2 | COc1cnc(Cl)cc1-c1cc(C)ncc1C(=O)Nc1nnc(OCC2(F)CN(C)C2)s1 [Example 269, 2′-chloro-N-(5-((3-fluoro-1-methylazetidin-3-yl)methoxy)-1,3,4-thiadiazol-2-yl)-5′-methoxy-6-methyl-(4,4′-bipyridine)-3-carboxamide]
20 | 1 to 10 | COc1cnc(Cl)cc1-c1cc(C)ncc1C(=O)Nc1nnc(OC[C@@H]2CCN(C(C)=O)C2)s1 [Example 270, (R)—N-(5-((1-acetylpyrrolidin-3-yl)methoxy)-1,3,4-thiadiazol-2-yl)-2′-chloro-5′-methoxy-6-methyl-(4,4′-bipyridine)-3-carboxamide]
21 | ≤ 0.2 | COc1cnc(Cl)cc1-c1cc(C)ncc1C(=O)Nc1nnc(OCC(C)(C)N2CCNC2=O)s1 [Example 271, 2′-chloro-5′-methoxy-6-methyl-N-(5-(2-methyl-2-(2-oxoimidazolidin-1-yl)propoxy)-1,3,4-thiadiazol-2-yl)-(4,4′-bipyridine)-3-carboxamide]
